Data from patent EP3748362A1, “IN VITRO METHOD FOR DETECTING RENAL DISEASE” (Fundacion Instituto De Investigacion Sanitaria Fundacion …, priority 2019, dated 2020).
Entries after “also recorded” stand apart in the source; their conditions may differ.

Assays:
[1] = test system: NF-κB2; assay: Non-canonical NF-κB2 activation in TWEAK-stimulated PBMCs from healthy donors; format: cell-based, Human; settings: 12 µM paricalcitol 24 hours, TWEAK 100 ng/ml, p52 levels
[2] = test system: renal inflammation induced by folic acid; assay: Renal inflammatory cell infiltration, folic acid-induced renal injury in mice; format: in vivo; settings: folic acid 300 mg/kg model; paricalcitol 25 µg/kg/day i.p.; anti-F4/80 and anti-CD3 immunohistochemistry
Description: (§1) All animal procedures were performed according to the guidelines of animal research in the European Community and with prior approval by the Ethics Committee of the Health Research of the IIS-Fundacion Jiménez Díaz. For in vivo studies, mice received a daily intraperitoneal injection of the VDRA Paricalcitol starting 48 hours prior to induction of kidney damage.
(§2) At the time of sacrifice, animals were anesthetized with 5 mg/kg xylazine (Rompun, Bayer AG) and 35 mg/kg ketamine (Ketolar, Pfizer) and the kidneys perfused in situ with cold saline before removal. Then, kidney portions were fixed in formalin buffer for immunohistochemistry studies or immediately frozen in liquid nitrogen for gene and protein studies.
Folic acid nephropathy is a classical model of kidney tubulointerstitial injury and inflammation that has been reported in humans. Mice received a single intraperitoneal injection of folic acid (Sigma) 300 mg/kg in 0.3 mol/l sodium bicarbonate or vehicle, and were sacrificed 48 hours later. […]
Paraffin-embedded kidney sections (3 µm) were stained using conventional methods. […] For each sample (processed by duplicate in a blinded manner), the average value was obtained from the analysis of 4 fields (20X objective) as density/mm2 or percentage stained area vs total analyzed area. Data are expressed as fold increase over control mice, as mean ± SEM of 8-10 animals per group. […]

[3] = test system: NF-κB1; assay: Canonical NF-κB1 activation in obstructed kidneys (UUO) in mice; format: in vivo; settings: paricalcitol-treated obstructed kidneys (UUO); 750 ng/kg/day
Description: as §1, §2
Unilateral ureteral obstruction (UUO) was established in male C57BL/6 mice, under isoflurane-induced anesthesia. […]
(§3) For western blot, cell (25 µg/lane) and kidney (100-150 µg/lane) protein extracts were separated on 6%-12% polyacrylamide-SDS gels under reducing conditions. […] Autoradiographs were scanned using the Gel Doc™ EZ imager and analyzed with the Image Lab 3.0 software (BioRad).

[4] = test system: TRAF3; assay: TRAF3 western blot in TWEAK-stimulated PBMCs from healthy donors; format: cell-based, Human; settings: paricalcitol 15 umol/L 48 hours before TWEAK 100 ng/ml for 24 hours
[5] = Renal function (serum BUN), folic acid-induced renal injury in mice; format: in vivo; settings: folic acid 300 mg/kg model; paricalcitol 25 µg/kg/day i.p.
Description: as §1
Folic acid nephropathy is a classical model of kidney tubulointerstitial injury and inflammation that has been reported in humans. Mice received a single intraperitoneal injection of folic acid (Sigma) 300 mg/kg in 0.3 mol/l sodium bicarbonate or vehicle, and were sacrificed 48 hours later. Two groups were studied; untreated or paricalcitol treated (25 µg/kg/day, i.p., Abbot), n=7-8 per group starting 48 hours before FA injection. The dose of paricalcitol was chosen based on dose-finding preliminary experiments.

[6] = test system: NF-κB1; assay: Canonical NF-κB1 activation in kidneys of TWEAK-injected mice; format: in vivo; settings: kidneys from TWEAK-injected mice; paricalcitol 750 ng/kg/day
Description: as §1, §2
TWEAK administration: C57BL/6 female mice (9-12 weeks, weight 20 g, 7-8 animals per group), received a single intraperitoneal injection of 0.5 µg TWEAK dissolved in saline and were sacrificed 24 hours later, as previously described (Sanz et al. 2008). Controls were injected with the saline vehicle (n=8-10 mice per group). TWEAK endotoxin level were <0.1 ng/mg, confirmed by MALDI-TOF. […]
as §3

[7] = test system: TRAF3; assay: TRAF3 western blot in TWEAK-stimulated HK2 cells; format: cell-based, Human; settings: paricalcitol 15 umol/L 48 hours before TWEAK 100 ng/ml for 24 hours
Description: Human kidney proximal tubule epithelial cells (HK2 cell line, ATCC CRL-2190) were grown in RPMI 1640 with 10% fetal bovine serum (FBS), 1% glutamine, 100 U/ml penicillin, 100 µg/ml streptomycin, 5 µg/ml insulin-transferrin-selenite and 36 ng/ml hydrocortisone in 5% CO2 at 37° C. When cells reached 60 to 70% confluence, they were serum-depleted for 24 hours before the experiment.
Cells were stimulated with 100ng/ml recombinant human soluble TWEAK (Millipore) or p-200 µg/ml cresyl-sulfate (Raymond Vanholder and Griet Glorieux, University of Gent, Belgium). Concentrations of TWEAK and p-cresyl-sulfate were based on previously published dose-response experiments (Poveda et al. 2014; Sanz et al. 2008). […] DMSO, used as a solvent in some cases, had no effect on cell viability or on gene expression levels.
as §3

Question: For `C[C@H](/C=C/[C@H](C)C(C)(C)O)[C@H]1CC[C@H]2/C(=C/C=C3C[C@@H](O)C[C@H](O)C3)CCC[C@]12C` [paricalcitol], which “TWEAK-induced NF-κB2 activation” value [1] is on record?
Answer: Its value is “inhibited”.

Question: And the “renal inflammatory cell infiltration” value [2]?
Answer: Its value is “prevented”.

Question: And the “NF-κB1 activation, evaluated by IκB-α phosphorylation and p65/NF-κB DNA binding activity” value [3]?
Answer: Its value is “not modified”.

Question: And the “TWEAK-induced TRAF3 degradation” value [4]?
Answer: Its value is “inhibited”.

Question: And the “renal function assessed by serum BUN levels” value [5]?
Answer: Its value is “restored changes in renal function”.

Question: What about the “IκBα phosphorylation and nuclear p65 NF-κB levels” value [6] of the same compound?
Answer: Its value is “not modulated; also recorded: not modified”.

Question: And the “TWEAK-induced TRAF3 protein levels” value [7]?
Answer: Its value is “restored TWEAK-induced TRAF3 protein levels to values similar to control-untreated cells”.
